Experimental data from patent US11058903B2, “Methods for identifying and treating cachexia or pre-cachexia using an inhibitor of rage” (THE BROAD INSTITUTE, INC., priority 2013, dated 2021).
Entries after “also recorded” stand apart in the source; their conditions may differ.

Tests used:
pancreatic cancer cells = experiment: CellTiter Glo cell number assay, chemotherapy with or without soluble RAGE; type: cell-based; details: treated for 5 days; Gemcitibine alone or with increasing doses of recombinant human soluble RAGE
MEK/ERK = experiment: Western blot of phosphorylated MEK and ERK in muscle cells exposed to cachexia-inducing conditioned media (CI-CM); type: cell-based, human; details: FIG. 20; for CI-CM stimulated phosphorylation of ERK: human muscle cells stimulated by CI-CM; for MEK/ERK activation (pMEK, pERK) by cachexia stimuli in CI-CM: muscle cells exposed to CI-CM, relative to NCI-CM, Western blot
From the text: FIG. 20 is an image of a Western blot showing phosphorylated MEK (pMEK) and phosphorylated ERK (pERK) in muscle cells exposed to cachexia-inducing conditioned media (CI-CM), either in the absence or presence of the MEK/ERK inhibitors, PD184352 (PD184) and trametinib (Tram). Also shown are pMEK and pERK levels in muscle cells exposed to non-cachexia-inducing conditioned media (NCI-CM).
Inhibition of MEK by exposure to PD1 84352 or trametinib blocked CI-CM stimulated phosphorylation of ERK (FIG. 20).

HSkM cells = experiment: In-Cell Western of myosin heavy chain (MyoHC) content in muscle cells exposed to CI-CM; type: cell-based, human
From the text: FIG. 21 is a chart showing the quantification of myosin heavy chain (MyoHC) content determined by In-Cell Western analysis of in vitro HSkM cells treated with media conditioned by cachexia-inducing MkN1 and G361 cells and in vitro HSkM cells treated with media conditioned by non-cachexia-inducing 293 cells, either in the presence or absence of a MEK/ERK inhibitor PD184352 (PD184).
FIG. 22 is a chart showing the myosin heavy chain (MyoHC) content determined by In-Cell Western analysis of in vitro HSkM cells pre-treated (for 2 days) or not pre-treated with cachexia-inducing conditioned media (“CI-CM”), either in the presence or absence of an ERK1/2 inhibitor, SCH772984 (SCH2984).
FIGS. 23A and 23B are a series of charts showing the dose response of myosin heavy chain (MyoHC) content determined by In-Cell Western analysis of muscle cells treated with a RAGE Anti-Peptide (FIG. 23A) or an anti-RAGE mAb (FIG. 23B), either in the absence or presence of cachexia-inducing conditioned media (CI-CM).
FIG. 24 is a chart showing the dose response of myosin heavy chain (MyoHC) content determined by In-Cell Western analysis of muscle cells treated with a recombinant soluble RAGE, either in the presence of cachexia-inducing conditioned media (CI-CM) or non-cachexia-inducing conditioned media (NCI-CM). […]

[1] = system: differentiated primary adipocytes; experiment: Lipid loss in adipocytes treated with CI-CM (bodipy/DAPI staining); type: cell-based, human; details: 5 days CI-CM, FIG. 42
From the text: FIG. 42 includes six panels showing adipocytes in cultured stained with bodipy to highlight lipids and DAPI to stain nuclei. Lipids are lost in cells treated for 5 days with cachexia (CXA) inducing conditioned media (CM). Lipid loss is inhibited by inhibiting RAGE signaling.
Lipid loss from differentiated primary adipocytes occurs within 5 days of contact with cachexia-inducing conditioned media (FIG. 42A). This loss is inhibited in adipocytes treated with Rage inhibitors, anti-RAGE monoclonal antibody AF1145 or Tramatenib. This phenotypic response is also seen in melanoma cells.
The effects of treatment with RAGE blocking antibodies and Tremetinib are shown (FIG. 42).

human muscle cells = experiment: Testing of secreted proteins/cytokines for induction of the L1000 cachexia signature in muscle cells; type: cell-based; details: in vitro systems described
Method: FIG. 32 are graphs showing cytokine abundance relative to cachexia in patient plasma and conditioned media. Human cytokines (300 on cytokine array) in muscle were tested. None of the expected “usual suspect” cytokines induced the cachectic phenotype or gene expression signature in human muscle cells. IL6, INHBA, IFNG, IL10, IL1, TNFa was assayed in patient plasma and conditioned media.
FIG. 33 is a graph showing testing of human cytokines for induction of cancer cachexia signature. For some the enrichment score was weak (e.g., 1.25).
A faithful read-out of the cachectic phenotype was also developed using a novel high-throughput, low-cost gene expression profiling method (L1000) (FIG. 5). L1000 involves the profiling of 1000 human transcripts from which the remainder of the transcriptome can be computationally inferred. This method, validated in over 1 million samples, allowed for profiling of small numbers of cells grown in 384-well plates.
Therefore, it is likely that the major cachexia-inducing factors were yet to be discovered.

Nc1ccn([C@@H]2O[C@H](CO)[C@@H](O)C2(F)F)c(=O)n1 [Gemcitibine]
pancreatic cancer cell numbers (CellTiter Glo) (pancreatic cancer cells): reduction

O=C(NOCC1CC1)c1ccc(F)c(F)c1Nc1ccc(I)cc1Cl [PD184352]
CI-CM stimulated phosphorylation of ERK (MEK/ERK): blocked | MEK/ERK activation (pMEK, pERK) by cachexia stimuli in CI-CM (MEK/ERK): inhibited | cachectic induced loss of myosin heavy chain (MyoHC) protein (HSkM cells; HSkM cells with media conditioned by MkN1 and G361 cells, low-dose, dose curve, FIG. 21): blocks loss of MyoHC; also recorded: block

O=C(Nc1ccc2[nH]nc(-c3ccncc3)c2c1)C1CCN(CC(=O)N2CCN(c3ccc(-c4ncccn4)cc3)CC2)C1 (stereo not drawn) [SCH772984]
reversal of cachectic induced loss of myosin heavy chain (MyoHC) (HSkM cells; HSkM cells pre-treated (2 days) or not with CI-CM, dose response, FIG. 22): can reverse the MyoHC loss at a certain dose, beyond which the benefit is lost; also recorded: (partially) reverse; also recorded: reduced in a dose-dependent manner

CC(=O)Nc1cccc(-n2c(=O)n(C3CC3)c(=O)c3c(Nc4ccc(I)cc4F)n(C)c(=O)c(C)c32)c1 [trametinib, N-[3-[3-Cyclopropyl-5-[(2-fluoro-4-iodophenyl)amino]-3,4,6,7-tetrahydro-6,8-dimethyl-2,4,7-trioxopyrido[4,3-d]pyrimidin-1(2H)-yl]phenyl]acetamide]
CI-CM stimulated phosphorylation of ERK (MEK/ERK): blocked | MEK/ERK activation (pMEK, pERK) by cachexia stimuli in CI-CM (MEK/ERK): inhibited | lipid loss from adipocytes caused by cachexia-inducing conditioned media ([1]; listed as Tramatenib): inhibited | lipid loss from adipocytes caused by cachexia-inducing conditioned media ([1]; listed as Tremetinib): block the loss of lipid

Activin
induction of the cachexia signature (human muscle cells): none of them strongly induced the cachexia signature

IFNγ: secreted protein tested as candidate cachexia-inducing protein
induction of the cachexia signature (human muscle cells): none of them strongly induced the cachexia signature

IL-6: secreted protein tested as candidate cachexia-inducing protein
induction of the cachexia signature (human muscle cells): none of them strongly induced the cachexia signature

Myostatin: secreted protein tested as candidate cachexia-inducing protein
induction of the cachexia signature (human muscle cells): none of them strongly induced the cachexia signature

TNFα
induction of the cachexia signature (human muscle cells): none of them strongly induced the cachexia signature

B1: IL-10: secreted protein tested as candidate cachexia-inducing protein (protein, UniProt P22301 19-178, looked up)
Interleukin-10: SPGQGTQSENSCTHFPGNLPNMLRDLRDAFSRVKTFFQMKDQLDNLLLKESLLEDFKGYLGCQALSEMIQFYLEEVMPQAENQDPDIKAHVNSLGENLKTLRLRLRRCHRFLPCENKSKAVEQVKNAFNKLQEKGIYKAMSEFDIFINYIEAYMTMKIRN
induction of the cachexia signature (human muscle cells): none of them strongly induced the cachexia signature
